Values belong to the compound of their own block, whether it stands above or below them.
Key:
CYP2C19 = CYP2C19 (Homo sapiens, UniProt P33261); assay: Inhibition of CYP2C19 (unknown origin) at 10 uM relative to control; format: ADME
BaF3 [1] = assay: Antiproliferative activity against mouse Ba/F3 cells harbouring FLT3 ITD F691I mutant assessed as growth inhibition measured after 72 hrs by CellTiter-Glo assay; format: functional
Focal adhesion kinase 1 = Focal adhesion kinase 1 (Homo sapiens, UniProt Q05397); assay: Inhibition of recombinant FAK (unknown origin) by radiometric kinase assay
BaF3 [2] = assay: Antiproliferative activity against mouse Ba/F3 cells assessed as growth inhibition measured after 72 hrs by CellTiter-Glo assay; format: functional
[3] = Antiproliferative activity against human A375P cells assessed as growth inhibition measured after 72 hrs by CellTiter-Glo assay; format: functional
BaF3 [4] = assay: Antiproliferative activity against mouse Ba/F3 cells harbouring FLT3 ITD mutant assessed as growth inhibition measured after 72 hrs by CellTiter-Glo assay; format: functional
CYP2C9 = CYP2C9 (Homo sapiens, UniProt P11712); assay: Inhibition of CYP2C9 (unknown origin) at 10 uM relative to control; format: ADME
CYP1A2 = target: T1, CYP1A2 (Homo sapiens, UniProt P05177); assay: Inhibition of CYP1A2 (unknown origin) at 10 uM relative to control; format: ADME
T1 sequence (P05177 whole entry): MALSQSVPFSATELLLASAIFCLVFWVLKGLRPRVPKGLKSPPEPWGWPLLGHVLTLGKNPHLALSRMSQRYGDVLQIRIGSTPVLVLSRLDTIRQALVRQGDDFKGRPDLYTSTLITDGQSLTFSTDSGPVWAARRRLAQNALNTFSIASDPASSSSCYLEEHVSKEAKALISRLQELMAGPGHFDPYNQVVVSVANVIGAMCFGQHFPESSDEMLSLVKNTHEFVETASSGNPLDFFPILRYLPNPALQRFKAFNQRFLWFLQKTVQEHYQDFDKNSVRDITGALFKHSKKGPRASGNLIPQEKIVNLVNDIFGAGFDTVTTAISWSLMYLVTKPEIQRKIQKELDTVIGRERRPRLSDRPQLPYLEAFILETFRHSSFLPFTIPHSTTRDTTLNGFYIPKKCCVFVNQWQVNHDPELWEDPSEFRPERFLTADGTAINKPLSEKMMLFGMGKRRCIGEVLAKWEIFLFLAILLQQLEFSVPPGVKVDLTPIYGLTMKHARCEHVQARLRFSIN

[5] = Metabolic stability in human liver microsomes assessed as compound remaining at 1 uM measured after 1 hr; format: ADME, Microsome; settings: read-out: Stabilty
BaF3 [6] = assay: Antiproliferative activity against mouse Ba/F3 cells harbouring FLT3 ITD D835Y mutant assessed as growth inhibition measured after 72 hrs by CellTiter-Glo assay; format: functional
CYP3A4 = CYP3A4 (Homo sapiens, UniProt P08684); assay: Inhibition of CYP3A4 (unknown origin) at 10 uM relative to control; format: ADME
CYP2D6 = CYP2D6 (Homo sapiens, UniProt P10635); assay: Inhibition of CYP2D6 (unknown origin) at 10 uM relative to control; format: ADME
BaF3 [7] = assay: Antiproliferative activity against mouse Ba/F3 cells harbouring FLT3 D835Y mutant assessed as growth inhibition measured after 72 hrs by CellTiter-Glo assay; format: functional
HCT-116 = assay: Antiproliferative activity against human HCT-116 cells assessed as growth inhibition measured after 72 hrs by CellTiter-Glo assay; format: functional
BaF3 [8] = assay: Antiproliferative activity against mouse Ba/F3 cells harbouring FLT3 ITD F691L mutant assessed as growth inhibition measured after 72 hrs by CellTiter-Glo assay; format: functional
[9] = Inhibition of FLT3 D835Y (unknown origin); parameters: species or system Homo sapiens
MDA-MB-231 = assay: Antiproliferative activity against human MDA-MB-231 cells assessed as growth inhibition measured after 72 hrs by CellTiter-Glo assay; format: functional

Sequence of Focal adhesion kinase 1 (Q05397 whole entry): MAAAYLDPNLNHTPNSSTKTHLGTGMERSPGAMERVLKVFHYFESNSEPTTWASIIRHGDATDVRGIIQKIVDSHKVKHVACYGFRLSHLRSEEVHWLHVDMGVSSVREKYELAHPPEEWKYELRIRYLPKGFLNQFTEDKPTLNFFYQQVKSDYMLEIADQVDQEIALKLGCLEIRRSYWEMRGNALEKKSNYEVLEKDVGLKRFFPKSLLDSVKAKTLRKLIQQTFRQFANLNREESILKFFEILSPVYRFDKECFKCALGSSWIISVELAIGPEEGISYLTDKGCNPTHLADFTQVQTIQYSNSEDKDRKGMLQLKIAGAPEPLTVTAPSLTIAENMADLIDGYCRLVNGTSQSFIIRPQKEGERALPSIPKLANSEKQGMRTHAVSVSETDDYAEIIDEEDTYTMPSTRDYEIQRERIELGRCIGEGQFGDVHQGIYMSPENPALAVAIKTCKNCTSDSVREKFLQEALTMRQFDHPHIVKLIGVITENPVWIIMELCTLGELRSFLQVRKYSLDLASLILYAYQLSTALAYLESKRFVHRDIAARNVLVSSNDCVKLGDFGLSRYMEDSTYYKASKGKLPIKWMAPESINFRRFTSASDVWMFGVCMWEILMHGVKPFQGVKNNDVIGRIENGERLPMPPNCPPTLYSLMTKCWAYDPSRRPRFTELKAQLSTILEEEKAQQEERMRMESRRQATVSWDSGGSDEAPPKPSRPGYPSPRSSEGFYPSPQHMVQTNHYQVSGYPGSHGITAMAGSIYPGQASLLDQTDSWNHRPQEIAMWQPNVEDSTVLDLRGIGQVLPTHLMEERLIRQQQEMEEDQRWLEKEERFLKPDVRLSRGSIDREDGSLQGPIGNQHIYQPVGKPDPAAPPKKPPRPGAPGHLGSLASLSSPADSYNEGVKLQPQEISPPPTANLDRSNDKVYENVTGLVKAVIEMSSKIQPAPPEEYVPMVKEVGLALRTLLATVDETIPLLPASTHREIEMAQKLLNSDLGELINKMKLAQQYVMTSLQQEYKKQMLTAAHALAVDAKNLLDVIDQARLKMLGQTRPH
Sequence of CYP3A4 (P08684 whole entry): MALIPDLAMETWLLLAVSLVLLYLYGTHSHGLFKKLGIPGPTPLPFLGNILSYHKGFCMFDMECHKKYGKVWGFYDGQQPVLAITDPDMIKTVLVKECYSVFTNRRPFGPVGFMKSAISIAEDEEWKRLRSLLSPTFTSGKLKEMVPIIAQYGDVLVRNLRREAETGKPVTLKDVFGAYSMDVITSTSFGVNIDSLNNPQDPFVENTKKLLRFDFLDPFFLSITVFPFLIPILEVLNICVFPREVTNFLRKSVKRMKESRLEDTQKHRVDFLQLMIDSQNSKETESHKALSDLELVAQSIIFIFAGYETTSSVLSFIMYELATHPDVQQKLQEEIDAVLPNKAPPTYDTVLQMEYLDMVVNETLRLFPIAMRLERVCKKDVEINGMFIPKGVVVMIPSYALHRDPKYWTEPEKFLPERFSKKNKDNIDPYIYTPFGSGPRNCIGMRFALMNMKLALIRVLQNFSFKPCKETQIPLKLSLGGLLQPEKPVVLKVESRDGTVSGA
Sequence of CYP2C19 (P33261 whole entry): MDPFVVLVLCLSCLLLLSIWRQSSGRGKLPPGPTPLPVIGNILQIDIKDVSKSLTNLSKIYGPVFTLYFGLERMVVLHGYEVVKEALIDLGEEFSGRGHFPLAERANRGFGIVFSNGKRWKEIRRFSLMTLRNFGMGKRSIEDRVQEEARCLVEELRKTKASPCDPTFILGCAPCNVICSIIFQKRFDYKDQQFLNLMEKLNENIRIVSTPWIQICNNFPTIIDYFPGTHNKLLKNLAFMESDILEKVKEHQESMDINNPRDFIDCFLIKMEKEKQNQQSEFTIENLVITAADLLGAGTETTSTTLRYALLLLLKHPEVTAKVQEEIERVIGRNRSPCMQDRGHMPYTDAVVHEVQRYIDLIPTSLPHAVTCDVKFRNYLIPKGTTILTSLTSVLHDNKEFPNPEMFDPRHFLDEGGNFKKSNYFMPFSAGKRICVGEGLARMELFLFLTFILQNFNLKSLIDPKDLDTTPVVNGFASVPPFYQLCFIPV
Sequence of CYP2D6 (P10635 whole entry): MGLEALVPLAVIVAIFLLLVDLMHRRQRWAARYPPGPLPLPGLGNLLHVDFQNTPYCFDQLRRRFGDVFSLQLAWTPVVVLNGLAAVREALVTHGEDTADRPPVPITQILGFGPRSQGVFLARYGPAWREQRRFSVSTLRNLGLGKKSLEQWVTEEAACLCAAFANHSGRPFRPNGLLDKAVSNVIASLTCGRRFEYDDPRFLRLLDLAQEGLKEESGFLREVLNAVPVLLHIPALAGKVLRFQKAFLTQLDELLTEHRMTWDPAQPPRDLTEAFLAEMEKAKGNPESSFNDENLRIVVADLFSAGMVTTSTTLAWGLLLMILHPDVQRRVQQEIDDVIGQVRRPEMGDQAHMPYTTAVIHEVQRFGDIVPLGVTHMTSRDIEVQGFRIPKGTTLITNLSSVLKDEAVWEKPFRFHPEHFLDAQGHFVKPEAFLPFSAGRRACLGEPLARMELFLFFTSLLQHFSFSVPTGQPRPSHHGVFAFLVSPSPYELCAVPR
Sequence of CYP2C9 (P11712 whole entry): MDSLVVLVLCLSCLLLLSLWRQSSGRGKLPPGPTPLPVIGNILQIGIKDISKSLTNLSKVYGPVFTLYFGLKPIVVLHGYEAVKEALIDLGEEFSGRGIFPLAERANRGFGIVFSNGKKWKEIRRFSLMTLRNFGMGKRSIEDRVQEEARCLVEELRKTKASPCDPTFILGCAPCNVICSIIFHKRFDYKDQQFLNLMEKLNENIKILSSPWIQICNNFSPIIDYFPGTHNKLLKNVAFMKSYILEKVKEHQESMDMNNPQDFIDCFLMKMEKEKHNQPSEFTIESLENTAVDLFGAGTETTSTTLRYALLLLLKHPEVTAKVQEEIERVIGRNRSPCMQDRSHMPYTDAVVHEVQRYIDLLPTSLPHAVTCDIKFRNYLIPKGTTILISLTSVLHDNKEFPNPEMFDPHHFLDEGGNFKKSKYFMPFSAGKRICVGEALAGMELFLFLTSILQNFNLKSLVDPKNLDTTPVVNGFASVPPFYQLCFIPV

inhibition at 10 µM (CYP2C19): 57.5%
GI50 (BaF3 [1]; Mus musculus, BaF3): 183 nM
IC50 (Focal adhesion kinase 1): 12 nM
GI50 (BaF3 [2]; Mus musculus, BaF3): 550 nM
GI50 (BaF3 [4]; Mus musculus, BaF3): 7.4 nM
inhibition at 10 µM (CYP2C9): 63.2%
inhibition at 10 µM (CYP1A2): 67.5%
remaining at 1 h, 1 µM [5]: 100%
GI50 (BaF3 [6]; Mus musculus, BaF3): 11 nM
inhibition at 10 µM (CYP3A4): 57.3%
inhibition at 10 µM (CYP2D6): 84.7%
GI50 (BaF3 [7]; Mus musculus, BaF3): 1.6 nM
GI50 (HCT-116; Homo sapiens, HCT-116): 250 nM
GI50 (BaF3 [8]; Mus musculus, BaF3): 103 nM
IC50 [9]: < 0.5 nM
GI50 (MDA-MB-231; Homo sapiens, MDA-MB-231): 460 nM
SMILES: CS(=O)(=O)Nc1cccc(-c2csc3cnc(Nc4ccc(N5CCNCC5)cc4)nc23)c1
GI50 ([3]; Homo sapiens, A375P): 490 nM

IC50 (Focal adhesion kinase 1): 29 nM
remaining at 1 h, 1 µM [5]: 44.1%
GI50 (HCT-116; Homo sapiens, HCT-116): 370 nM
GI50 (MDA-MB-231; Homo sapiens, MDA-MB-231): 880 nM
SMILES: CCN1CCN(c2ccc(Nc3ncc4scc(-c5cnc6ccccc6c5)c4n3)cc2)CC1
GI50 ([3]; Homo sapiens, A375P): 8050 nM

GI50 (BaF3 [1]; Mus musculus, BaF3): 243 nM
IC50 (Focal adhesion kinase 1): 11 nM
GI50 (BaF3 [2]; Mus musculus, BaF3): 468 nM
GI50 (BaF3 [4]; Mus musculus, BaF3): 34.7 nM
remaining at 1 h, 1 µM [5]: 60.2%
GI50 (BaF3 [6]; Mus musculus, BaF3): 13.2 nM
GI50 (BaF3 [7]; Mus musculus, BaF3): 6.1 nM
GI50 (HCT-116; Homo sapiens, HCT-116): 170 nM
GI50 (BaF3 [8]; Mus musculus, BaF3): 226 nM
IC50 [9]: < 0.5 nM
GI50 (MDA-MB-231; Homo sapiens, MDA-MB-231): 420 nM
SMILES: CCN1CCN(c2ccc(Nc3ncc4scc(-c5cccc(S(=O)(=O)NC)c5)c4n3)cc2)CC1
GI50 ([3]; Homo sapiens, A375P): 400 nM

GI50 (BaF3 [1]; Mus musculus, BaF3): 259 nM
GI50 (BaF3 [6]; Mus musculus, BaF3): 5 nM
GI50 (BaF3 [7]; Mus musculus, BaF3): 2 nM
GI50 (BaF3 [8]; Mus musculus, BaF3): 82.8 nM
SMILES: CCc1nc(C(N)=O)c(Nc2ccc(N3CCC(N4CCN(C)CC4)CC3)c(OC)c2)nc1NC1CCOCC1 [GILTERITINIB]

IC50 (Focal adhesion kinase 1): 321 nM
GI50 (HCT-116; Homo sapiens, HCT-116): 1100 nM
GI50 (MDA-MB-231; Homo sapiens, MDA-MB-231): 950 nM
SMILES: CCOC(=O)c1cccc(-c2csc3cnc(Nc4ccc(N5CCN(CC)CC5)cc4)nc23)c1
GI50 ([3]; Homo sapiens, A375P): 1650 nM

GI50 (BaF3 [1]; Mus musculus, BaF3): > 10000 nM
GI50 (BaF3 [2]; Mus musculus, BaF3): > 10000 nM
GI50 (BaF3 [4]; Mus musculus, BaF3): 0.6 nM
GI50 (BaF3 [6]; Mus musculus, BaF3): 12.9 nM
GI50 (BaF3 [7]; Mus musculus, BaF3): 2.2 nM
GI50 (BaF3 [8]; Mus musculus, BaF3): 68.2 nM
SMILES: CC(C)(C)c1cc(NC(=O)Nc2ccc(-c3cn4c(n3)sc3cc(OCCN5CCOCC5)ccc34)cc2)no1 [QUIZARTINIB]

SMILES: CS(=O)(=O)Nc1cccc(-c2csc3cnc(NC4CCCCC4)nc23)c1
IC50 (Focal adhesion kinase 1): 717 nM
GI50 [3]: 17800 nM
GI50 (HCT-116): 11300 nM
GI50 (MDA-MB-231): 7730 nM

SMILES: CS(=O)(=O)Nc1cccc(-c2csc3cnc(Nc4ccc(N5CCC(O)CC5)cc4)nc23)c1
inhibition at 10 µM (CYP2C19): 56.5%
GI50 (BaF3 [1]): 587 nM
IC50 (Focal adhesion kinase 1): 16 nM
GI50 (BaF3 [2]): 600 nM
GI50 [3]: 1930 nM
GI50 (BaF3 [4]): 14.5 nM
inhibition at 10 µM (CYP1A2): 34.9%
remaining at 1 h, 1 µM [5]: 54.8%
GI50 (BaF3 [6]): 14 nM
inhibition at 10 µM (CYP3A4): 57.9%
inhibition at 10 µM (CYP2D6): 61.5%
GI50 (BaF3 [7]): 23 nM
GI50 (HCT-116): 520 nM
GI50 (BaF3 [8]): 299 nM
IC50 [9]: < 0.5 nM
GI50 (MDA-MB-231): 440 nM

IC50 (Focal adhesion kinase 1): 36 nM
remaining at 1 h, 1 µM [5]: 71.1%
GI50 (HCT-116; Homo sapiens, HCT-116): 300 nM
GI50 (MDA-MB-231; Homo sapiens, MDA-MB-231): 1260 nM
SMILES: CCN1CCN(c2ccc(Nc3ncc4scc(-c5cccc(C(=O)NC)c5)c4n3)cc2)CC1
GI50 ([3]; Homo sapiens, A375P): 1360 nM

IC50 (Focal adhesion kinase 1): 26 nM
SMILES: COc1cc(Nc2ncc3scc(-c4cccnc4)c3n2)cc(OC)c1OC

SMILES: CNC(=O)c1ccccc1-c1csc2cnc(Nc3cc(OC)c(OC)c(OC)c3)nc12
IC50 (Focal adhesion kinase 1): 55 nM

SMILES: CS(=O)(=O)Nc1cccc(-c2csc3cnc(NC4CC4)nc23)c1
IC50 (Focal adhesion kinase 1): 2350 nM
GI50 [3]: 36600 nM
GI50 (HCT-116): 43200 nM
GI50 (MDA-MB-231): 43500 nM

SMILES: CN(C)c1ccc(Nc2ncc3scc(-c4cccc(NS(C)(=O)=O)c4)c3n2)cc1
IC50 (Focal adhesion kinase 1): 18 nM
GI50 [3]: 3480 nM
remaining at 1 h, 1 µM [5]: 63.8%
GI50 (HCT-116): 2270 nM
GI50 (MDA-MB-231): 3320 nM

inhibition at 10 µM (CYP2C19): 82.9%
GI50 (BaF3 [1]; Mus musculus, BaF3): 234 nM
IC50 (Focal adhesion kinase 1): 21 nM
GI50 (BaF3 [2]; Mus musculus, BaF3): 511 nM
GI50 (BaF3 [4]; Mus musculus, BaF3): 23.4 nM
inhibition at 10 µM (CYP2C9): 100%
inhibition at 10 µM (CYP1A2): 44.8%
remaining at 1 h, 1 µM [5]: 73.1%
GI50 (BaF3 [6]; Mus musculus, BaF3): 20.5 nM
inhibition at 10 µM (CYP3A4): 55.1%
inhibition at 10 µM (CYP2D6): 100%
GI50 (BaF3 [7]; Mus musculus, BaF3): 4 nM
GI50 (HCT-116; Homo sapiens, HCT-116): 110 nM
GI50 (BaF3 [8]; Mus musculus, BaF3): 136 nM
IC50 [9]: < 0.5 nM
GI50 (MDA-MB-231; Homo sapiens, MDA-MB-231): 260 nM
SMILES: CCN1CCN(c2ccc(Nc3ncc4scc(-c5cccc([N+](=O)[O-])c5)c4n3)cc2)CC1
GI50 ([3]; Homo sapiens, A375P): 500 nM

SMILES: COc1cc(Nc2ncc3scc(-c4ccccc4NS(C)(=O)=O)c3n2)cc(OC)c1OC
IC50 (Focal adhesion kinase 1): 78 nM

SMILES: COc1cc(Nc2ncc3scc(-c4cccc(N(C)S(C)(=O)=O)c4)c3n2)cc(OC)c1OC
IC50 (Focal adhesion kinase 1): 35 nM

SMILES: COc1cc(Nc2ncc3scc(-c4ccccc4N(C)S(C)(=O)=O)c3n2)cc(OC)c1OC
IC50 (Focal adhesion kinase 1): 15 nM

From ChEMBL document CHEMBL4837239, “Identification of Thieno[3,2-d]pyrimidine Derivatives as Dual Inhibitors of Focal Adhesion Kinase and FMS-like Tyrosine Kinase 3” (J Med Chem, 2021)
